This is an account of results in patent publication US6420371B1, “Quinazolinone-containing pharmaceutical compositions for prevention of neovascularization and for treating malignancies” (Madasit Medical Research Services & Development Co., Ltd., priority 1997, dated 2002).

For this experiment, the system named is rat aortic rings. Kind of experiment: Microvessel formation from rat aortic rings embedded in type I collagen gel. It is filed as cell-based. As to the method:
Thoracic aortas were obtained from 1- to 2-month-old SD (Sprague-Dawley) rats sacrificed by decapitation [R. F. Nicosia and A. Ottinetti, Lab. Invest, Vol. 63, pp. 115-122 (1991)]. The aortas were immediately transferred to a Petri dish with PBS. The fibro-adipose tissue around the aorta was carefully removed under a dissecting microscope, and 1 mm-long aortic rings were sectioned and extensively rinsed in PBS. Type I collagen solution (0.2 ml) was added to each 16-mm well and gellation was allowed for 15 min at 37° C. Each aorta ring was transferred and positioned to the center of the gel and another 0.4 ml of the collagen solution was carefully poured on top of the ring. […]

`O=C(CC1NCCCC1O)Cn1cnc2cc(Br)c(Cl)cc2c1=O` (stereo not drawn) [Halofuginone]: the “inhibition of microvessel formation” value is, setting by setting: (100 ng/ml Halofuginone) “almost complete inhibition”; (250 ng/ml Halofuginone) “Complete inhibition”. Besides, under “removal of the drug on day 2”, the “reversibility of inhibition of microvessel formation” value is “reversed upon removal of the drug on day 2”.
